Measured values published in patent US6835563B1, “Compositions and methods for increasing cholesterol efflux and raising HDL ATP binding cassette transporter protein ABC1” (CV Therapeutics, priority 1999, dated 2004).

Assays:
ABC1 protein = assay: Cell-surface ABC1 protein by biotin labeling and immunoprecipitation; assay type: cell-based, human; settings: serum deprivation and cholesterol-loading (30 μg/ml, 48 h), normal and TD1 cells
Experimental: Cell-surface labeling and immunoprecipitation was used to determine whether increased expression of ABC1 protein in the plasma membrane is correlated with an increase in cholesterol efflux (FIG. 10). The relative amount of ABC1 on the cell surface was determined by cross-linking surface proteins on intact cells with the membrane-impermeable agent sulfo-NHS-biotin, followed by the steps of membrane solubilization, immunoprecipitation with ABC1 antibody, SDS-PAGE, and detection with streptavidin.
Both normal and TD1 cells were cultured under control conditions and conditions known to increase apolipoprotein-mediated cholesterol efflux (Oram, et al., J. Lip. Res., 40: 1769-1781 (1999)). […] Cholesterol-loaded cells were grown to confluence in DMEM/10% FBS and then incubated in DMEM/BSA for 48 hours with 30 μg/ml cholesterol plus 18 hours with no additives (cholesterol). […]
Detection of ABC1 Protein: The eluted biotinylated proteins were subjected to SDS-PAGE (6% gel; 150V, 5 hours) and transferred to nitrocellulose membrane (200 mA, 18 hours). The nitrocellulose was probed with streptavidin-horse radish peroxidase (Amersham Pharmacia, Piscataway, N.J.; Cat. #RPN 1231) diluted 300-fold and detected by enhanced chemiluminescence labeling (ECL) according to vendor's protocol (Amersham Pharmacia, Piscataway, N.J.). […]

normal fibroblasts = assay: HDL- and apo A-I-mediated [3H]cholesterol efflux from normal fibroblasts; assay type: cell-based, human; settings: HDL 40 μg protein/ml or apo A-I 10 μg/ml, up to 48 h
Experimental: (§1) Cell Cultures: Human fibroblasts were obtained from skin explants from two normal subjects (NL1) and three unrelated patients with Tangier disease (TD). TD1 cells were obtained from a person with extremely low plasma HDL cholesterol and apo A-I levels and clinical symptoms typical of Tangier disease. […] TD3 cells were obtained from a person with Tangier disease who presented with orange tonsil remnants, asymmetrical motor neuropathy, plasma HDL cholesterol of 5 mg/dL, and LDL cholesterol of 16 mg/dL (Lawn et al., J. Clin. Invest., 104, R25-R31 (1999)). The normal cells and TD subject cells were immortalized as described in Oram et al., J. Lipid. Res., 40: 1769-1781 (1999). Briefly, the cells were transfected with amphotropic retroviruses containing vectors with inserts of human papillomavirus 16-oncogenes E6 and E7 and a neomycin resistance selectable marker. Control cells were infected with vector alone (mock-infected). Pooled cell populations were selected in the presence of G418 for two passages, after which G418 was excluded from the medium. Fibroblasts were used between the fifth and sixteenth passage (primary) or sixth and fourteenth passage (immortalized). The immortalized normal and TD cells were seeded into 16-mm wells or 35-mm dishes and grown to confluence in. Dulbecco's modified. Eagle's medium (DMEM) plus 10% fetal bovine serum (FBS) before experimental use. […]

TD fibroblasts = assay: HDL- and apo A-I-mediated [3H]cholesterol efflux from Tangier disease fibroblasts; assay type: cell-based, human; settings: HDL 40 μg protein/ml or apo A-I 10 μg/ml, up to 48 h
Experimental: as §1

ABC1 mRNA [1] = assay: ABC1 mRNA by quantitative RT-PCR in normal fibroblasts; assay type: cell-based, human; settings: apo A-I 10 μg/ml 18-24 h
Experimental: (§2) To determine whether ABC1 plays a rate-limiting role in cellular sterol efflux, the synthesis of ABC1 was measured under various cellular conditions related to cholesterol efflux processes. Specifically, normal fibroblasts and TD fibroblasts were individually exposed to conditions of excess cAMP, cholesterol, or Apo A-I. Cell cultures of normal skin fibroblasts and TD1 and TD2 fibroblasts were prepared as described in Example 1. The level of ABC1 mRNA was measured by RT-PCR. Cell cultures: Immortalized cell cultures of normal skin fibroblasts and TD1 and TD2 fibroblasts were prepared as described in Example 1. Cells were grown to subconfluence in DMEM/10% FBS before replacement with DMEM/BSA and the indicated additive for 24 or 48 hours. RNA was prepared as described in Example 2. RT-PCR: Quantitative PCR was carried out using the GeneAmp 5700 Sequence. Detection System (Perkin-Elmer Applied Biosystems, Foster City, Calif.). Briefly, 500 ng of DNase-treated mRNA was reverse transcribed using random hexamer primers at 2.5 μM. Approximately 5% of this reaction was amplified by PCR using the SYBR green core kit (PE. Applied Biosystems, Foster City, Calif.; Cat. #4304886) and human ABC1 primers […] […] The mRNA in each sample was quantitated by detecting the increase in fluorescence caused by SYBR green binding to the double-stranded amplification product generated during each PCR cycle. […]

ABC1 mRNA [2] = assay: ABC1 mRNA by quantitative RT-PCR in TD1 and TD2 fibroblasts; assay type: cell-based, human; settings: apo A-I 10 μg/ml
Experimental: as §2

RAW 264.7 cells = assay: Apo A-I-mediated cholesterol efflux from cholesterol-loaded RAW 264.7 macrophage cells; settings: control cells, apo A-I only
Experimental: Assay to Measure Lipid Efflux: Apo AI-mediated efflux of cholesterol and, phospholipid was assayed according to the method described in. […] RAW 264.7 cells were cholesterol-loaded through the scavenger receptor by 24-hour incubation with acetylated LDL as described in Smith et al., J. Biol. Chem., 271:30647-30655 (1996). Briefly, RAW 264.7 cells in 24-well dishes were cholesterol-loaded and labeled overnight in 0.5 ml of DMEM supplemented with 50 μl/ml 1M glucose, 10 μl/ml 200 mM glutamine and 2% BSA and with 50 μg/ml acetylated low density lipoprotein (AcLDL) and [^3H]-cholesterol which had been pre-incubated for 30 minutes at 37° C. with AcLDL to yield a final concentration of 0.33 μCi/ml [^3H]-cholesterol. Cells were subsequently washed five times with PBS containing 1% BSA and incubated overnight (16-18 hours) in DMEM/BSA to allow for equilibrium of cholesterol pools. After equilibrium of cholesterol pools, cells were rinsed four times with PBS/BSA and incubated for one hour at 37° C. with DMEM/BSA before the efflux incubations. Efflux medium (DMEM/BSA) containing either albumin alone (control), albumin plus HDL (40 μg protein/ml), or albumin plus apo A-I (10 μg/ml, Biodesign International, Kennebunk, Me.) was added and the cells were incubated for 4, 24, or 48 hours. […] The radioactivity found in the culture medium was measured by scintillation counting after a 15-minute centrifugation at 12,000 g. The radioactivity in the cells was measured by scintillation counting after solubilization in 0.5 ml of 0.2M NaOH (Smith et al., J. Biol. Chem., 271:30647-30655 (1996)) or extraction in hexane:isopropanol (3:2 v/v) as described in Francis, et al., J. Clin. Invest., 96, 78-87 (1995). […] The efflux of cholesterol or phospholipid was expressed as the percentage of tritiated lipid counts in the medium over the total tritiated lipid counts recovered from the cells and medium (cpm medium/cpm (medium+lysate)×100).
Briefly, RAW 264.7 cells suspended at a density of 1.25×10^5 cells/ml were grown in DMEM/10% FBS supplemented with pyruvate. After 24 hours, the medium was removed and replaced with DMEM/BSA plus radiolabeled cholesterol (1 μCi/ml ^3[H]-cholesterol) and 50 μg/ml of acetylated LDL for 24 hours. The cells were then maintained for 24 hours in equilibrium medium consisting of DMEM/BSA plus either apo A-I alone (20 μg/ml), apo A-I and 8-bromo 3′, 5′ cAMP (1 mM) or apo A-I and rolipram (50 μM).

Compound: CC(C)CCC[C@@H](C)[C@H]1CC[C@H]2[C@@H]3CC=C4C[C@@H](O)CC[C@]4(C)[C@H]3CC[C@]12C [cholesterol]
- cell-surface expression of ABC1 (ABC1 protein): markedly increased

Compound: apo A-I: apolipoprotein cholesterol acceptor (Biodesign International)
- efflux of [3H]-cholesterol on addition to albumin medium (normal fibroblasts): promoted the efflux
- efflux of [3H]-cholesterol on addition to albumin medium (TD fibroblasts): little or no effect
- ABC1 mRNA expression on subsequent exposure of cholesterol-loaded cells (ABC1 mRNA [1]): marked decrease
- ABC1 expression on exposure of cholesterol-loaded cells (ABC1 mRNA [2]; TD1 cells): did not alter ABC1 expression
- ABC1 expression on exposure of cholesterol-loaded cells (ABC1 mRNA [2]; TD2 cells): slightly increased ABC1 expression
- cholesterol efflux (RAW 264.7 cells): 1890 c.p.m.
